From ChEMBL document CHEMBL1201862, “PubChem BioAssay data set” (2004)
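All cell lines were grown in 96-well plates and treated with compound for 48 hours. GI50 marks 50% less growth.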 The source made the active and inactive calls. Rule as the data show it: active = GI50 up to about 1.1 µM and inactive = higher.

Tests used:
Assay in all cases: NCI anticancer screen, dose series, 48 h
MDA-MB-435 = test system: MDA-MB-435
SNB-19 = test system: SNB-19
EKVX = test system: EKVX
SNB-75 = test system: SNB-75
SF-268 = test system: SF-268
DU-145 = test system: DU-145
HL-60 = test system: HL-60
A498 = test system: A498
HOP-92 = test system: HOP-92
HOP-62 = test system: HOP-62
KM12 = test system: KM12
OVCAR-3 = test system: OVCAR-3
SW-620 = test system: SW-620
PC-3 = test system: PC-3
OVCAR-8 = test system: OVCAR-8
ACHN = test system: ACHN
Malme-3M = test system: Malme-3M
MDA-N = test system: MDA-N
OVCAR-4 = test system: OVCAR-4
SR = test system: SR

Compound | GI50 (MDA-MB-435) | GI50 (SNB-19) | GI50 (EKVX) | GI50 (SNB-75) | GI50 (SF-268) | GI50 (DU-145) | GI50 (HL-60) | GI50 (A498) | GI50 (HOP-92) | GI50 (HOP-62) | GI50 (KM12) | GI50 (OVCAR-3) | GI50 (SW-620) | GI50 (PC-3) | GI50 (OVCAR-8) | GI50 (ACHN) | GI50 (Malme-3M) | GI50 (MDA-N) | GI50 (OVCAR-4) | GI50 (SR)
CCCCCC(O)[C@H]1C(=O)C[C@@H](O[Si](C)(C)C(C)(C)C)[C@@H]1/C=C/CCOCc1ccccc1 (some centres not stated) | 7.31 µM (inactive) | 15 µM (inactive) | 17.4 µM (inactive) | 17.8 µM (inactive) | 16.3 µM (inactive) | 20 µM (inactive) | 2.35 µM (inactive) | 17.8 µM (inactive) | 12.4 µM (inactive) | 17.3 µM (inactive) | 5.41 µM (inactive) | 13.7 µM (inactive) | 13.1 µM (inactive) | 12.1 µM (inactive) | 13.8 µM (inactive) | 13.5 µM (inactive) | 15.3 µM (inactive) | 9.51 µM (inactive) | 12.6 µM (inactive) | 
C=CCOc1cc(NC(=S)c2ccoc2C)ccc1OC | > 100 µM (inactive) | > 100 µM (inactive) | > 100 µM (inactive) | 24.1 µM (inactive) | > 100 µM (inactive) | > 100 µM (inactive) | > 100 µM (inactive) | > 100 µM (inactive) | 27.9 µM (inactive) |  | > 100 µM (inactive) | > 100 µM (inactive) | > 100 µM (inactive) | > 100 µM (inactive) | > 100 µM (inactive) | > 100 µM (inactive) | > 100 µM (inactive) | > 100 µM (inactive) | > 100 µM (inactive) | 
Clc1ccc(Cc2nc3ccccc3o2)cc1 | > 100 µM (inactive) | > 100 µM (inactive) | 40.1 µM (inactive) | 20 µM (inactive) | > 100 µM (inactive) | > 100 µM (inactive) | 40.2 µM (inactive) |  | > 100 µM (inactive) | > 100 µM (inactive) | 69.8 µM (inactive) | 52.8 µM (inactive) | > 100 µM (inactive) | 55.8 µM (inactive) | > 100 µM (inactive) | > 100 µM (inactive) | > 100 µM (inactive) | > 100 µM (inactive) | 48.2 µM (inactive) | 50.5 µM (inactive)
CCOC(=O)/C=C\c1c(Cl)n(-c2ccccc2)c(=O)n(-c2ccccc2)c1=O | 22.1 µM (inactive) | 16 µM (inactive) | 21 µM (inactive) | 14.9 µM (inactive) | 20.7 µM (inactive) | 18.8 µM (inactive) | 4.63 µM (inactive) | 21.3 µM (inactive) | 15.8 µM (inactive) | 20.8 µM (inactive) | 19.1 µM (inactive) | 19.3 µM (inactive) | 23.8 µM (inactive) | 18.7 µM (inactive) | 17.4 µM (inactive) | 20.7 µM (inactive) | 24.5 µM (inactive) | 17 µM (inactive) | 30 µM (inactive) | 
COc1cc2c(cc1O)C1Cc3ccc(OC)c(O)c3C[N+]1(C)CC2 (configuration not stated) | > 100 µM (inactive) | > 100 µM (inactive) | > 100 µM (inactive) | > 100 µM (inactive) | > 100 µM (inactive) | > 100 µM (inactive) | > 100 µM (inactive) | > 100 µM (inactive) | > 100 µM (inactive) | > 100 µM (inactive) | > 100 µM (inactive) |  | > 100 µM (inactive) | > 100 µM (inactive) | > 100 µM (inactive) | > 100 µM (inactive) | > 100 µM (inactive) | > 100 µM (inactive) | > 100 µM (inactive) | 
O=C(NC(CCCCN1C(=O)c2ccccc2C1=O)P(=O)(Oc1ccccc1)Oc1ccccc1)OCc1ccccc1 (configuration not stated) | > 100 µM (inactive) | > 100 µM (inactive) | > 100 µM (inactive) | 0.01 µM (active) | > 100 µM (inactive) | > 100 µM (inactive) |  |  | > 100 µM (inactive) | 71.8 µM (inactive) | > 100 µM (inactive) | > 100 µM (inactive) | > 100 µM (inactive) | > 100 µM (inactive) | > 100 µM (inactive) | > 100 µM (inactive) | > 100 µM (inactive) | > 100 µM (inactive) |  | > 100 µM (inactive)
COc1cc(/C=C2\CCC/C(=C\c3cc(OC)c(O)c(OC)c3)C2=O)cc(OC)c1O | 1.84 µM (inactive) | 1.81 µM (inactive) | 4.5 µM (inactive) | 9.86 µM (inactive) | 2.61 µM (inactive) | 2.39 µM (inactive) | 1.72 µM (inactive) | 1.41 µM (inactive) |  | 1.8 µM (inactive) | 1.38 µM (inactive) | 1.07 µM (active) | 3.37 µM (inactive) | 3.35 µM (inactive) | 1.98 µM (inactive) | 1.22 µM (inactive) | 1.51 µM (inactive) | 1.79 µM (inactive) | 3.16 µM (inactive) | 3.8 µM (inactive)
CC(=O)NC1C(OC(C)C(=O)NC(C)C(=O)NC(CCC(=O)NCCCCCNc2ccc([N+](=O)[O-])c3[nH]c4ccccc4c(=O)c23)C(N)=O)C(O)C(CO)OC1(C)OCc1ccccc1 (configuration not stated) | > 100 µM (inactive) | > 100 µM (inactive) | > 100 µM (inactive) | > 100 µM (inactive) | > 100 µM (inactive) | 64.6 µM (inactive) |  | > 100 µM (inactive) |  | 89.7 µM (inactive) | 79.3 µM (inactive) | > 100 µM (inactive) | 67.9 µM (inactive) | > 100 µM (inactive) | 71.6 µM (inactive) | > 100 µM (inactive) | > 100 µM (inactive) | > 100 µM (inactive) | > 100 µM (inactive) | 14 µM (inactive)
CCOC(=O)CCC(NC(=O)OCc1ccccc1)C(=O)NC(CCC(=O)OCC)C(=O)NC(CCC(=O)OCC)C(=O)NC(CCC(=O)OCC)C(=O)NC(CCC(=O)OCC)C(=O)OCC (configuration not stated) | > 100 µM (inactive) |  | > 100 µM (inactive) | > 100 µM (inactive) |  | > 100 µM (inactive) |  |  |  | > 100 µM (inactive) | > 100 µM (inactive) |  | > 100 µM (inactive) | > 100 µM (inactive) | > 100 µM (inactive) | > 100 µM (inactive) | > 100 µM (inactive) | > 100 µM (inactive) | > 100 µM (inactive) | > 100 µM (inactive)
Cc1nc(O)nc(N/N=C/c2c3ccccc3c(Cl)c3ccccc23)c1C(=O)Nc1ccc(Cl)cc1 | > 100 µM (inactive) | 92.5 µM (inactive) |  | > 100 µM (inactive) | > 100 µM (inactive) | > 100 µM (inactive) | 19 µM (inactive) | 47.5 µM (inactive) |  | 34.7 µM (inactive) |  | 58.3 µM (inactive) | 52.6 µM (inactive) | 10.8 µM (inactive) | 68.9 µM (inactive) | 33.8 µM (inactive) | > 100 µM (inactive) | > 100 µM (inactive) | 45.5 µM (inactive) | 38.5 µM (inactive)
CCn1ncc2c(=O)n3ncn(-c4ccc(Br)cc4)c3nc21 | > 100 µM (inactive) | > 100 µM (inactive) | > 100 µM (inactive) | > 100 µM (inactive) | > 100 µM (inactive) | > 100 µM (inactive) | > 100 µM (inactive) | > 100 µM (inactive) |  | > 100 µM (inactive) | > 100 µM (inactive) | > 100 µM (inactive) | > 100 µM (inactive) | > 100 µM (inactive) | > 100 µM (inactive) | > 100 µM (inactive) | > 100 µM (inactive) | > 100 µM (inactive) | > 100 µM (inactive) | 58.1 µM (inactive)
